Data from PMC4770715, “LIM kinase inhibitors disrupt mitotic microtubule organization and impair tumor cell proliferation” (Oncotarget, 2015).

What was measured:
Test in all cases: biochemical
Parameters in all cases: KINOMEscan active-site competition binding, percent of control (100 = no competition)
Conditions in all cases: competition binding, percent control
[1] = target: T1, ABL1(F317L)-nonphosphorylated (Homo sapiens, UniProt P00519, F317L)
T1 construct: nonphosphorylated

[2] = target: ACVR2A (Homo sapiens, UniProt P27037)
[3] = target: T2, ADCK3 (Homo sapiens, UniProt Q8NI60)
T2 construct: gene COQ8A

[4] = target: AKT2 (Homo sapiens, UniProt P31751)
[5] = target: BRAF (Homo sapiens, UniProt P15056)
[6] = target: CAMK1 (Homo sapiens, UniProt Q14012)
[7] = target: T3, CDK4-cyclinD1 (Homo sapiens, UniProt P11802)
T3 construct: cyclinD1

[8] = target: CDKL3 (Homo sapiens, UniProt Q8IVW4)
[9] = target: CSNK2A1 (Homo sapiens, UniProt P68400)
[10] = target: T4, DRAK1 (Homo sapiens, UniProt Q9UEE5)
T4 construct: gene STK17A

[11] = target: T5, ERK4 (Homo sapiens, UniProt P31152)
T5 construct: gene MAPK4

[12] = target: FES (Homo sapiens, UniProt P07332)
[13] = target: FGFR3(G697C) (Homo sapiens, UniProt P22607, G697C)
[14] = target: T6, JNK3 (Homo sapiens, UniProt P53779)
T6 construct: gene MAPK10

[15] = target: T7, MLCK (Homo sapiens, UniProt Q32MK0)
T7 construct: gene MYLK3

[16] = target: MUSK (Homo sapiens, UniProt O15146)
[17] = target: T8, PCTK2 (Homo sapiens, UniProt Q00537)
T8 construct: gene CDK17

[18] = target: T9, PKAC-beta (Homo sapiens, UniProt P22694)
T9 construct: gene PRKACB

[19] = target: PKN1 (Homo sapiens, UniProt Q16512)
[20] = target: PRKCD (Homo sapiens, UniProt Q05655)
[21] = target: T10, RSK4(Kin.Dom.1-N-terminal) (Homo sapiens, UniProt Q9UK32)
T10 construct: gene RPS6KA6; Kin.Dom.1-N-terminal

[22] = target: STK39 (Homo sapiens, UniProt Q9UEW8)
[23] = target: T11, TRKA (Homo sapiens, UniProt P04629)
T11 construct: gene NTRK1

T4 sequence (Q9UEE5 whole entry): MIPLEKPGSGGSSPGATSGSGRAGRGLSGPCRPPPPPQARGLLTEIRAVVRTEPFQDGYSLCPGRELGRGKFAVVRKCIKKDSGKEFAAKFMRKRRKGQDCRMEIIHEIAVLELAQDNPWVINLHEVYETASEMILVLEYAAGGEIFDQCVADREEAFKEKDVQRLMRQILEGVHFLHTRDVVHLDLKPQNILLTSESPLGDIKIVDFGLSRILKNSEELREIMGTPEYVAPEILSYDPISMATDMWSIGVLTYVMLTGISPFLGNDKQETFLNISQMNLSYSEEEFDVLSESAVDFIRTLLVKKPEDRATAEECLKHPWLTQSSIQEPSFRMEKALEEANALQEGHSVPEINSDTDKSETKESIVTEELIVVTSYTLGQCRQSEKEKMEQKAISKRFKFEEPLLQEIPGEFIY
T1 sequence (P00519 whole entry F317L): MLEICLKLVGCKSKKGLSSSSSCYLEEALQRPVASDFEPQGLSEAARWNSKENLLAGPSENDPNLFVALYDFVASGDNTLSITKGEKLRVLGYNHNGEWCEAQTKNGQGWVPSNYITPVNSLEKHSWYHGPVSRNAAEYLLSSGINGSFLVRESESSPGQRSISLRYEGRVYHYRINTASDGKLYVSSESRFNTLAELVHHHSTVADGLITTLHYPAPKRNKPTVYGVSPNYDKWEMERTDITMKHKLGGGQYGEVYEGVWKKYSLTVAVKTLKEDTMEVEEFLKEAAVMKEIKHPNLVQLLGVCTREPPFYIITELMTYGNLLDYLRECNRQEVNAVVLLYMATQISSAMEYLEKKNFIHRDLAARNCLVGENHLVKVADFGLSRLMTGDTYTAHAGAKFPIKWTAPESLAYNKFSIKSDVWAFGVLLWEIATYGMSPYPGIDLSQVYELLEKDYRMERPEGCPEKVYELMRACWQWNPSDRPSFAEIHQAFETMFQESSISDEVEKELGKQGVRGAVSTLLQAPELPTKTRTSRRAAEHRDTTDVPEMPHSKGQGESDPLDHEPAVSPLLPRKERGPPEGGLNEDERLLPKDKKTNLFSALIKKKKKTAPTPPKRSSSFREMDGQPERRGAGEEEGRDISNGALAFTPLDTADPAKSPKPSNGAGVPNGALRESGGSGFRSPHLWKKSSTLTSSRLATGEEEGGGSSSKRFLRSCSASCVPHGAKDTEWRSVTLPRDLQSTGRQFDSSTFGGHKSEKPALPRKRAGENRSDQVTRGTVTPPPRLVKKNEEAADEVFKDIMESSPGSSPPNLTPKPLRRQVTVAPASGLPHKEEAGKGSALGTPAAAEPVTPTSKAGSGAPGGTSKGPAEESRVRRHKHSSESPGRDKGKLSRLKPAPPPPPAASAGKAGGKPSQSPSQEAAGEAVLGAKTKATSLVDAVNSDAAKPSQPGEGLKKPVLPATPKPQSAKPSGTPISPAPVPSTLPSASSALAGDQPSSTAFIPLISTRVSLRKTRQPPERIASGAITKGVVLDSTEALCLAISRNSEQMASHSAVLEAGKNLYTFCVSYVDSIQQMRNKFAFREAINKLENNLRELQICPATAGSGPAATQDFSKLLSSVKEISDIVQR
T8 sequence (Q00537 whole entry): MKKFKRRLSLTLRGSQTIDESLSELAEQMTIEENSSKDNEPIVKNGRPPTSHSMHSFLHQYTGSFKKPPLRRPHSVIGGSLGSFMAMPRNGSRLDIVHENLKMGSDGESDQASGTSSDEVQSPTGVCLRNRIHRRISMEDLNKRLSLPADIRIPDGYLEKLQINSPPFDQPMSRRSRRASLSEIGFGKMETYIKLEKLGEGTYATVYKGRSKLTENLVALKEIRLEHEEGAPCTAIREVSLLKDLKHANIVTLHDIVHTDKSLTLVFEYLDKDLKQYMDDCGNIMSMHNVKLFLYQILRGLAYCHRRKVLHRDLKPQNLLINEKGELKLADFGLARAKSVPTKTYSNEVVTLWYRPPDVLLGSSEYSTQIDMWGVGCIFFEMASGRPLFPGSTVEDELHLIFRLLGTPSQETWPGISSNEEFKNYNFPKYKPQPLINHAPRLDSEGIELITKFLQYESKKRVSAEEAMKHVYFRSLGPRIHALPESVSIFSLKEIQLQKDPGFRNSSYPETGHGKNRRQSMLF
T2 sequence (Q8NI60 whole entry): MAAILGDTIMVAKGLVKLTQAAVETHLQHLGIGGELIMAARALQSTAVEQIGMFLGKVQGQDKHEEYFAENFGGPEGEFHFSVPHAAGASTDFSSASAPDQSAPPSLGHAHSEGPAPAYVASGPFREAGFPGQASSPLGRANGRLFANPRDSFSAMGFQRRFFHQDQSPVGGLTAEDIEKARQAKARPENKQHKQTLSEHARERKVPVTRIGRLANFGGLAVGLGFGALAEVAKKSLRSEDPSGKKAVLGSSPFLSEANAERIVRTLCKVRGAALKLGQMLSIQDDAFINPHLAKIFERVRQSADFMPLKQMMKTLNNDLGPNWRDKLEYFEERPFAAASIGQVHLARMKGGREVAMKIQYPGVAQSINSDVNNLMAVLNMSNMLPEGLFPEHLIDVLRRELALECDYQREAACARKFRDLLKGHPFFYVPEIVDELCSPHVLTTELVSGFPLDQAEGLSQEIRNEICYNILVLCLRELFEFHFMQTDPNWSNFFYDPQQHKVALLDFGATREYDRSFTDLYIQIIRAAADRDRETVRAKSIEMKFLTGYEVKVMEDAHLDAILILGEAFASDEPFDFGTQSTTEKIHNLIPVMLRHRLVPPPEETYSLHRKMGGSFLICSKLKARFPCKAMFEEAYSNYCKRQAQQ
T6 sequence (P53779 whole entry): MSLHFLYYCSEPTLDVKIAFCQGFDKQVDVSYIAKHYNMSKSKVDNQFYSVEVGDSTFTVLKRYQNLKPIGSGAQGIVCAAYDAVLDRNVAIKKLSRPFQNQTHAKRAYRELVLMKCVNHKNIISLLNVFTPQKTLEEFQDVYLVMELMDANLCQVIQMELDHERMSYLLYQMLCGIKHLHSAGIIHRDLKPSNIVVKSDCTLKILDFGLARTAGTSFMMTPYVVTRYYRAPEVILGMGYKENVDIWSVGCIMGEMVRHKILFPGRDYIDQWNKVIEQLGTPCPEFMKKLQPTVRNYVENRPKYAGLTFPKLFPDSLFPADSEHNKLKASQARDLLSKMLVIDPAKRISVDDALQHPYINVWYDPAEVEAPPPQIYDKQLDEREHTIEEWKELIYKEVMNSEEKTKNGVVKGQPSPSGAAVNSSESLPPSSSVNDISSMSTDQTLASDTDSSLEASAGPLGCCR
Chain of ACVR2A (P27037 whole entry): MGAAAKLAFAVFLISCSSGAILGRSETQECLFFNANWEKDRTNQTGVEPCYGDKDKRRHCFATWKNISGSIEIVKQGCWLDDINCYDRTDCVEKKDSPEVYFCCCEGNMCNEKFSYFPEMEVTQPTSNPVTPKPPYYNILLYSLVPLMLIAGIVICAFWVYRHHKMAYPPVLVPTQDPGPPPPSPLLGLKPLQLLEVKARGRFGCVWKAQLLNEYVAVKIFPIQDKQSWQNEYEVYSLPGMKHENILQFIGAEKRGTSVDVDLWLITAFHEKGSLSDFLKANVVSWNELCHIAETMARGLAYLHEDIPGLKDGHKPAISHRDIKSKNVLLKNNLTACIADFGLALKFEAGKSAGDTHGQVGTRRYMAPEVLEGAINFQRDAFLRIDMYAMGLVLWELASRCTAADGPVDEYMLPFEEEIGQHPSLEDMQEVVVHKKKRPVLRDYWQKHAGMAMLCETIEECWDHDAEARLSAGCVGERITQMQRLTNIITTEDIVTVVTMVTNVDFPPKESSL
Chain of AKT2 (P31751 whole entry): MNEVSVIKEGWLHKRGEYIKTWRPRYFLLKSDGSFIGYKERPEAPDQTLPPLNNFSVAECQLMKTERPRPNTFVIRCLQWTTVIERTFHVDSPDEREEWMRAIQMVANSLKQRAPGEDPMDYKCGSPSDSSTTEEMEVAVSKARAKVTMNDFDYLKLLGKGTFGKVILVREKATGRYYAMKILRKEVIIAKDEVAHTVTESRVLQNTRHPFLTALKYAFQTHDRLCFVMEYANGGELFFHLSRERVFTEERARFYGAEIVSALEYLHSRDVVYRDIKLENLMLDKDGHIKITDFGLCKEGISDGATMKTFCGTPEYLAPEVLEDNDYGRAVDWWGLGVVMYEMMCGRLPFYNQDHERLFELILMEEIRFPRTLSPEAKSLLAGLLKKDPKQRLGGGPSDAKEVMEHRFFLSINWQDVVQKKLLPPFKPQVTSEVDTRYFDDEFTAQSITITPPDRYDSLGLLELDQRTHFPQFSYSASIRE
T7 sequence (Q32MK0 whole entry): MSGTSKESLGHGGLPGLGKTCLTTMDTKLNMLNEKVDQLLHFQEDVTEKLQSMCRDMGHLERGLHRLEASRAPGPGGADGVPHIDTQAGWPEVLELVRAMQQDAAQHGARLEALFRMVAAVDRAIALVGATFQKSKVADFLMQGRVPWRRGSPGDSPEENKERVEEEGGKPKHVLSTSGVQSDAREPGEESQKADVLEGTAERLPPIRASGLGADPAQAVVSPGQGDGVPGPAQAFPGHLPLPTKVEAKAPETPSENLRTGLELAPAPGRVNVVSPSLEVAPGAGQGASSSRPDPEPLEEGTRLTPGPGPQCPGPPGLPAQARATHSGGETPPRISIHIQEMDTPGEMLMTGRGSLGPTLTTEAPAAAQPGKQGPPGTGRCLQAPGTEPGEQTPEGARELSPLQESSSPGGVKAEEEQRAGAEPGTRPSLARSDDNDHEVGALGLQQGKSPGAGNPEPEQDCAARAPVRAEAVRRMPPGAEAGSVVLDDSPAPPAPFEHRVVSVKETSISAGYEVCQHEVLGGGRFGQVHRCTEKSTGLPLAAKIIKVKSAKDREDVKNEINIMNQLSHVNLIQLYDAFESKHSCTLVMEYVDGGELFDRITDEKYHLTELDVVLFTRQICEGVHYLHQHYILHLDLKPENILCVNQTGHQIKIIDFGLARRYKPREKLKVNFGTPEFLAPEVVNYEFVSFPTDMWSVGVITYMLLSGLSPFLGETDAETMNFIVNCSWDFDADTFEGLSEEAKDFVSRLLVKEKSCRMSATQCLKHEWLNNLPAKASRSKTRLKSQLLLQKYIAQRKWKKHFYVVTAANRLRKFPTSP

COc1ccc(-c2cnccc2-c2cnc(NC(=O)C(C)C)s2)c(C(F)(F)F)c1 [CRT0105446, N-{5-[3-(4-Methoxy-2-trifluoromethyl-phenyl)-pyridin-4-yl]-hiazol-2-yl}-isobutyramide]
remaining binding at 10 µM [1]: 92%
remaining binding at 10 µM [2]: 74%
remaining binding at 10 µM [3]: 98%
remaining binding at 10 µM [4]: 100%
remaining binding at 10 µM [5]: 79%
remaining binding at 10 µM [6]: 62%
remaining binding at 10 µM [7]: 20%
remaining binding at 10 µM [8]: 26%
remaining binding at 10 µM [9]: 95%
remaining binding at 10 µM [10]: 81%
remaining binding at 10 µM [11]: 100%
remaining binding at 10 µM [12]: 87%
remaining binding at 10 µM [13]: 93%
remaining binding at 10 µM [14]: 36%
remaining binding at 10 µM [15]: 90%
remaining binding at 10 µM [16]: 96%
remaining binding at 10 µM [17]: 17%
remaining binding at 10 µM [18]: 100%
remaining binding at 10 µM [19]: 62%
remaining binding at 10 µM [20]: 90%
remaining binding at 10 µM [21]: 59%
remaining binding at 10 µM [22]: 100%
remaining binding at 10 µM [23]: 70%

Cc1ccc(-c2cnccc2-c2cnc(Nc3ccc(O)cc3)s2)c(Cl)c1 [CRT0105950, 4-{5-[3-(2-Chloro-4-methyl-phenyl)-pyridin-4-yl]-thiazol-2-ylamino}-phenol]
remaining binding at 10 µM [1]: 86%
remaining binding at 10 µM [2]: 45%
remaining binding at 10 µM [3]: 56%
remaining binding at 10 µM [4]: 100%
remaining binding at 10 µM [5]: 93%
remaining binding at 10 µM [6]: 9.4%
remaining binding at 10 µM [7]: 3.7%
remaining binding at 10 µM [8]: 23%
remaining binding at 10 µM [9]: 60%
remaining binding at 10 µM [10]: 100%
remaining binding at 10 µM [11]: 86%
remaining binding at 10 µM [12]: 93%
remaining binding at 10 µM [13]: 7.2%
remaining binding at 10 µM [14]: 25%
remaining binding at 10 µM [15]: 14%
remaining binding at 10 µM [16]: 18%
remaining binding at 10 µM [17]: 52%
remaining binding at 10 µM [18]: 44%
remaining binding at 10 µM [19]: 20%
remaining binding at 10 µM [20]: 76%
remaining binding at 10 µM [21]: 0.4%
remaining binding at 10 µM [22]: 100%
remaining binding at 10 µM [23]: 1%
